Experimental data: the CheMixHub ionic liquid set
± gives the uncertainty stated by the source.

Assay: xn = mol fraction of the nth substance listed

CCCCn1cc[n+](C)c1C.O=S(=O)([N-]S(=O)(=O)C(F)(F)F)C(F)(F)F + COC(=O)OC
viscosity [mPa·s], 101.3 kPa
Settings	288.15 K	293.15 K	298.15 K	303.15 K	308.15 K	313.15 K
x1 = 0.003134	0.698 ± 0.015	0.653 ± 0.014	0.611 ± 0.013	0.575 ± 0.013	0.541 ± 0.012	0.511 ± 0.011
x1 = 0.003617	0.704 ± 0.015	0.658 ± 0.014	0.615 ± 0.013	0.579 ± 0.013	0.544 ± 0.012	0.513 ± 0.011
x1 = 0.004671	0.717 ± 0.016	0.669 ± 0.015	0.626 ± 0.014	0.588 ± 0.013	0.553 ± 0.012	0.522 ± 0.011
x1 = 0.005144	0.722 ± 0.016	0.674 ± 0.015	0.63 ± 0.014	0.592 ± 0.013	0.557 ± 0.012	0.525 ± 0.011
x1 = 0.007528	0.753 ± 0.016	0.701 ± 0.015	0.655 ± 0.014	0.614 ± 0.013	0.578 ± 0.013	0.544 ± 0.012
x1 = 0.008467	0.763 ± 0.017	0.711 ± 0.016	0.664 ± 0.015	0.622 ± 0.014	0.585 ± 0.013	0.551 ± 0.012
x1 = 0.01016	0.786 ± 0.017	0.731 ± 0.016	0.682 ± 0.015	0.639 ± 0.014	0.6 ± 0.013	0.564 ± 0.012
x1 = 0.01046	0.789 ± 0.017	0.734 ± 0.016	0.685 ± 0.015	0.641 ± 0.014	0.602 ± 0.013	0.566 ± 0.012
x1 = 0.01168	0.805 ± 0.018	0.748 ± 0.016	0.697 ± 0.015	0.653 ± 0.014	0.612 ± 0.013	0.577 ± 0.013
x1 = 0.01411	0.833 ± 0.018	0.773 ± 0.017	0.721 ± 0.016	0.674 ± 0.015	0.632 ± 0.014	0.597 ± 0.013
x1 = 0.01541	0.85 ± 0.019	0.788 ± 0.017	0.734 ± 0.016	0.685 ± 0.015	0.643 ± 0.014	0.604 ± 0.013
x1 = 0.01579	0.854 ± 0.019	0.791 ± 0.017	0.738 ± 0.016	0.688 ± 0.015	0.645 ± 0.014	0.606 ± 0.013
x1 = 0.01626	0.86 ± 0.019	0.798 ± 0.017	0.743 ± 0.016	0.693 ± 0.015	0.651 ± 0.014	0.61 ± 0.013
x1 = 0.01704	0.87 ± 0.019	0.807 ± 0.018	0.751 ± 0.016	0.7 ± 0.015	0.657 ± 0.014	0.616 ± 0.013
x1 = 0.01948	0.898 ± 0.02	0.832 ± 0.018	0.773 ± 0.017	0.722 ± 0.016	0.675 ± 0.015	0.634 ± 0.014
x1 = 0.01969	0.901 ± 0.02	0.834 ± 0.018	0.775 ± 0.017	0.723 ± 0.016	0.677 ± 0.015	0.635 ± 0.014
x1 = 0.02378	0.947 ± 0.021	0.876 ± 0.019	0.813 ± 0.018	0.758 ± 0.017	0.709 ± 0.015	0.665 ± 0.015
x1 = 0.02412	0.949 ± 0.021	0.878 ± 0.019	0.816 ± 0.018	0.76 ± 0.017	0.711 ± 0.016	0.667 ± 0.015
x1 = 0.02675	0.977 ± 0.021	0.903 ± 0.02	0.838 ± 0.018	0.781 ± 0.017	0.731 ± 0.016	0.684 ± 0.015
x1 = 0.02717	0.98 ± 0.021	0.907 ± 0.02	0.842 ± 0.018	0.784 ± 0.017	0.734 ± 0.016	0.688 ± 0.015
x1 = 0.03309	1.044 ± 0.023	0.964 ± 0.021	0.894 ± 0.02	0.833 ± 0.018	0.778 ± 0.017	0.729 ± 0.016
x1 = 0.03594	1.073 ± 0.023	0.99 ± 0.022	0.918 ± 0.02	0.855 ± 0.019	0.798 ± 0.017	0.748 ± 0.016
x1 = 0.03715	1.086 ± 0.024	1.002 ± 0.022	0.929 ± 0.02	0.864 ± 0.019	0.807 ± 0.018	0.756 ± 0.017
x1 = 0.0405	1.117 ± 0.024	1.031 ± 0.023	0.957 ± 0.021	0.89 ± 0.019	0.83 ± 0.018	0.777 ± 0.017
x1 = 0.04889	1.211 ± 0.026	1.117 ± 0.024	1.034 ± 0.023	0.96 ± 0.021	0.895 ± 0.02	0.837 ± 0.018

O=S(=O)([N-]S(=O)(=O)C(F)(F)F)C(F)(F)F.[Li+] + COC(=O)OC
298.1 K, 100 kPa, x1 = 0.333
Settings	electrical conductivity [S/m]	viscosity [mPa·s]
–	0.12 ± 0.01	53.7 ± 1.6

O=S(=O)([N-]S(=O)(=O)C(F)(F)F)C(F)(F)F.[Li+] + COC(=O)OC + CCC1COC(=O)O1
Settings	viscosity [mPa·s]
298.15 K, 100 kPa, x1 = 0.333, x2 = 0.667	53.7 ± 1.6

O=S(=O)([N-]S(=O)(=O)C(F)(F)F)C(F)(F)F.[Li+] + COC(=O)OC + CCC(=O)OC
Settings	viscosity [mPa·s]
298.15 K, 100 kPa, x1 = 0.333, x2 = 0.667	53.7 ± 1.6

CCCCCCCCCCCCCC[P+](CCCCCC)(CCCCCC)CCCCCC.O=[N+]([O-])c1c[n-]cn1 + COCCOCCOCCOCCOC
viscosity [mPa·s], 100 kPa
Settings	278.15 K	283.15 K	303.15 K
x2 = 0.189	1503 ± 110	1036 ± 66	–
x2 = 0.404	–	–	107 ± 2

O=S(=O)([N-]S(=O)(=O)C(F)(F)F)C(F)(F)F.[Li+] + COCCOCCOCCOCCOC
Settings	electrical conductivity [S/m]
293 K, 100 kPa, frequency 0.05 MHz, x1 = 0.143	0.235 ± 0.005

CC(=O)[O-].CC[NH+](CC)CC + CS(C)=O
viscosity [mPa·s], 101 kPa
Settings	298.15 K	303.15 K	308.15 K
x2 = 0	24.12 ± 0.61	19.64 ± 0.5	16.13 ± 0.41
x2 = 0.0534	22.91 ± 0.58	18.67 ± 0.48	15.35 ± 0.39
x2 = 0.0936	22.01 ± 0.56	17.94 ± 0.46	14.76 ± 0.38
x2 = 0.1496	20.75 ± 0.53	16.93 ± 0.43	13.94 ± 0.36
x2 = 0.1837	19.99 ± 0.51	16.31 ± 0.42	13.44 ± 0.34
x2 = 0.2154	19.28 ± 0.49	15.74 ± 0.4	12.98 ± 0.33
x2 = 0.2836	17.76 ± 0.45	14.51 ± 0.37	11.98 ± 0.31
x2 = 0.3204	16.94 ± 0.43	13.85 ± 0.36	11.44 ± 0.29
x2 = 0.3837	15.53 ± 0.4	12.71 ± 0.33	10.51 ± 0.27
x2 = 0.4536	13.97 ± 0.36	11.45 ± 0.3	9.49 ± 0.25
x2 = 0.5169	12.56 ± 0.32	10.31 ± 0.27	8.56 ± 0.22
x2 = 0.5647	11.49 ± 0.3	9.45 ± 0.25	7.86 ± 0.21
x2 = 0.6447	9.71 ± 0.25	8.01 ± 0.21	6.69 ± 0.18
x2 = 0.7301	7.81 ± 0.2	6.48 ± 0.17	5.45 ± 0.15
x2 = 0.7884	6.52 ± 0.17	5.44 ± 0.15	4.61 ± 0.12
x2 = 0.839	5.41 ± 0.15	4.55 ± 0.12	3.89 ± 0.11
x2 = 0.8848	4.42 ± 0.12	3.76 ± 0.1	3.24 ± 0.09
x2 = 0.9121	3.84 ± 0.11	3.29 ± 0.09	2.86 ± 0.08
x2 = 0.9393	3.26 ± 0.09	2.82 ± 0.08	2.48 ± 0.07
x2 = 0.9649	2.72 ± 0.08	2.39 ± 0.07	2.13 ± 0.06
x2 = 0.9764	2.48 ± 0.07	2.2 ± 0.07	1.98 ± 0.06

CC(N)C(=O)[O-].COCCCCn1cc[n+](C)c1 + CS(C)=O
100 kPa
Settings	viscosity [mPa·s]
288.15 K, x1 = 0.1996	11.74 ± 0.14
288.15 K, x1 = 0.3012	22.04 ± 0.3
288.15 K, x1 = 0.5996	96.5 ± 2.4
288.15 K, x1 = 0.8997	304 ± 19
293.15 K, x1 = 0.1996	11.35 ± 0.11
293.15 K, x1 = 0.3012	19.11 ± 0.21
293.15 K, x1 = 1	266 ± 16
298.15 K, x1 = 0.1996	8.85 ± 0.11
303.15 K, x1 = 0.1996	7.37 ± 0.08
303.15 K, x1 = 0.5996	41.72 ± 0.54
308.15 K, x1 = 0.3985	16.23 ± 0.19
308.15 K, x1 = 0.5996	33.51 ± 0.42
308.15 K, x1 = 0.6966	44.96 ± 0.57
308.15 K, x1 = 0.7973	60.65 ± 0.77
313.15 K, x1 = 0.6966	36.01 ± 0.46
318.15 K, x1 = 0.1009	3.18 ± 0.04
318.15 K, x1 = 0.4922	15.18 ± 0.18
318.15 K, x1 = 0.5996	21.68 ± 0.27
318.15 K, x1 = 0.7973	37.1 ± 0.51
